{"source": "patent US9833497B2", "about": "“Human originated EGF domain proteins and use of the same” (CHENGDU SOURCEBIO LIMITED-LIABILITY COMPANY, priority 2013, dated 2017)", "type_in_all_cases": "cell-based", "key": {"[1]": {"test_system": "E. coli DH5α", "assay": "Antibacterial activity: MIC and growth curve against E. coli DH5α in 96-well plate", "conditions": "minimal inhibitory concentration against E. coli DH5α; 96-well plate, 5×10^5 CFU/mL, 37° C., judged after 8 h", "in_short": "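Log-phase bacteria (OD600 ~0.5) resuspended in LB at 5×10^5 CFU/mL, exposed to recombinant protein at 50, 25, 12.5 μg/mL final in triplicate, 37 °C shaking at 175 rpm. OD600 read every 30 min; MIC is lowest concentration showing no growth.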"}, "[2]": {"test_system": "E. coli BL21", "assay": "MIC against Gram-negative bacteria: E. coli BL21", "conditions": "5×10^5 CFU/mL", "in_short": "(§1)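 The recombinant human-originated EGF domain proteins were serially diluted two-fold against bacteria at 5×10^5 CFU/mL in LB medium. After shaken incubation at 37° C, the lowest concentration with no bacterial growth was recorded as the MIC.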"}, "[3]": {"test_system": "Pseudomonas aeruginosa", "assay": "MIC against Gram-negative bacteria: Pseudomonas aeruginosa", "conditions": "5×10^5 CFU/mL", "in_short": "as §1"}, "[4]": {"test_system": "Klebsiella pneumonia", "assay": "MIC against Gram-negative bacteria: Klebsiella pneumonia", "conditions": "5×10^5 CFU/mL", "in_short": "as §1"}, "[5]": {"test_system": "Enterobacter cloacae", "assay": "MIC against Gram-negative bacteria: Enterobacter cloacae", "conditions": "5×10^5 CFU/mL", "in_short": "as §1"}, "[6]": {"test_system": "Aeromonas hydrophila", "assay": "MIC against Gram-negative bacteria: Aeromonas hydrophila", "conditions": "5×10^5 CFU/mL", "in_short": "as §1"}, "[7]": {"test_system": "Citrobacter diversus", "assay": "MIC against Gram-negative bacteria: Citrobacter diversus", "conditions": "5×10^5 CFU/mL", "in_short": "as §1"}, "[8]": {"test_system": "Moraxella catarrhalis", "assay": "MIC against Gram-negative bacteria: Moraxella catarrhalis", "conditions": "5×10^5 CFU/mL", "in_short": "as §1"}, "[9]": {"test_system": "Proteus mirabilis", "assay": "MIC against Gram-negative bacteria: Proteus mirabilis", "conditions": "5×10^5 CFU/mL", "in_short": "as §1"}, "[10]": {"test_system": "Proteus vulgaris", "assay": "MIC against Gram-negative bacteria: Proteus vulgaris", "conditions": "5×10^5 CFU/mL", "in_short": "as §1"}, "[11]": {"test_system": "Serratia marcescens", "assay": "MIC against Gram-negative bacteria: Serratia marcescens", "conditions": "5×10^5 CFU/mL", "in_short": "as §1"}, "[12]": {"conditions": "E. coli BL21, 10 h cultivation at 37° C."}, "[13]": {"conditions": "10 h cultivation at 37° C., two-fold serial dilution"}}, "data": [{"substance": "PRT1434 (DVDECKYHPCYPGVHCINLSPGFRCDACPVGFTGPMVQ; listed as Homo sapiens)", "values": [{"measurement": "MIC", "setting": "[1]", "result": 25, "unit": "µg/mL"}, {"measurement": "MIC against E. coli BL21", "setting": "[2]; [12]", "result": 12.5, "unit": "µg/mL"}, {"measurement": "MIC against P. aeruginosa", "setting": "[3]; Pseudomonas aeruginosa, 10 h cultivation at 37° C.", "result": 25, "unit": "µg/mL"}, {"measurement": "MIC against K. pneumonia", "setting": "[4]; Klebsiella pneumonia, 10 h cultivation at 37° C.", "result": 100, "unit": "µg/mL"}, {"measurement": "MIC against E. cloacae", "setting": "[5]; Enterobacter cloacae, 10 h cultivation at 37° C.", "result": 25, "unit": "µg/mL"}, {"measurement": "MIC against A. hydrophila", "setting": "[6]; Aeromonas hydrophila, 10 h cultivation at 37° C.", "result": 12.5, "unit": "µg/mL"}, {"measurement": "MIC against C. diversus", "setting": "[7]; Citrobacter diversus, 10 h cultivation at 37° C.", "result": 25, "unit": "µg/mL"}, {"measurement": "MIC against M. catarrhalis", "setting": "[8]; Moraxella catarrhalis, 10 h cultivation at 37° C.", "result": 12.5, "unit": "µg/mL"}, {"measurement": "MIC against P. mirabilis", "setting": "[9]; Proteus mirabilis, 10 h cultivation at 37° C.", "result": 25, "unit": "µg/mL"}, {"measurement": "MIC against P. vulgaris", "setting": "[10]; Proteus vulgaris, 10 h cultivation at 37° C.", "result": 12.5, "unit": "µg/mL"}, {"measurement": "MIC against S. marcescens", "setting": "[11]; Serratia marcescens, 10 h cultivation at 37° C.", "result": 12.5, "unit": "µg/mL"}]}, {"substance": "PRT603 (CHCHPQGSKDTVCDQVTGQCPCHGEVSGRRCDRCLAGYFGFPSCHP; listed as Homo sapiens)", "values": [{"measurement": "MIC", "setting": "[1]", "result": 25, "unit": "µg/mL"}, {"measurement": "MIC E. coli BL21", "setting": "[2]; 96-well plate, 37° C., 10 h", "result": 50, "unit": "µg/mL"}, {"measurement": "MIC P. aeruginosa", "setting": "[3]; 96-well plate, 37° C., 10 h", "result": 25, "unit": "µg/mL"}, {"measurement": "MIC K. pneumonia", "setting": "[4]; 96-well plate, 37° C., 10 h", "result": 12.5, "unit": "µg/mL"}, {"measurement": "MIC E. cloacae", "setting": "[5]; 96-well plate, 37° C., 10 h", "result": 25, "unit": "µg/mL"}, {"measurement": "MIC A. hydrophila", "setting": "[6]; 96-well plate, 37° C., 10 h", "result": 50, "unit": "µg/mL"}, {"measurement": "MIC C. diversus", "setting": "[7]; 96-well plate, 37° C., 10 h", "result": 12.5, "unit": "µg/mL"}, {"measurement": "MIC M. catarrhalis", "setting": "[8]; 96-well plate, 37° C., 10 h", "result": 50, "unit": "µg/mL"}, {"measurement": "MIC P. mirabilis", "setting": "[9]; 96-well plate, 37° C., 10 h", "result": 12.5, "unit": "µg/mL"}, {"measurement": "MIC P. vulgaris", "setting": "[10]; 96-well plate, 37° C., 10 h", "result": 50, "unit": "µg/mL"}, {"measurement": "MIC S. marcescens", "setting": "[11]; 96-well plate, 37° C., 10 h", "result": 12.5, "unit": "µg/mL"}]}, {"substance": "PRT1137 (ESNECKMNPCKNNSTCTDLYKSYRCECTSGWTGQNCS; listed as Homo sapiens)", "values": [{"measurement": "MIC", "setting": "[1]", "result": 25, "unit": "µg/mL"}, {"measurement": "MIC E. coli BL21", "setting": "[2]; [13]", "result": 50, "unit": "µg/mL"}, {"measurement": "MIC P. aeruginosa", "setting": "[3]; [13]", "result": 25, "unit": "µg/mL"}, {"measurement": "MIC K. pneumonia", "setting": "[4]; [13]", "result": 12.5, "unit": "µg/mL"}, {"measurement": "MIC E. cloacae", "setting": "[5]; [13]", "result": 25, "unit": "µg/mL"}, {"measurement": "MIC A. hydrophila", "setting": "[6]; [13]", "result": 50, "unit": "µg/mL"}, {"measurement": "MIC C. diversus", "setting": "[7]; [13]", "result": 12.5, "unit": "µg/mL"}, {"measurement": "MIC M. catarrhalis", "setting": "[8]; [13]", "result": 50, "unit": "µg/mL"}, {"measurement": "MIC P. mirabilis", "setting": "[9]; [13]", "result": 12.5, "unit": "µg/mL"}, {"measurement": "MIC P. vulgaris", "setting": "[10]; [13]", "result": 50, "unit": "µg/mL"}, {"measurement": "MIC S. marcescens", "setting": "[11]; [13]", "result": 12.5, "unit": "µg/mL"}]}, {"substance": "PRT1111 (SEDMCSPDPCFNGGTCLVTWNDFHCTCPANFTGPTCA; listed as Homo sapiens)", "values": [{"measurement": "MIC", "setting": "[1]", "result": 12.5, "unit": "µg/mL"}, {"measurement": "MIC E. coli BL21", "setting": "[2]; [13]", "result": 50, "unit": "µg/mL"}, {"measurement": "MIC P. aeruginosa", "setting": "[3]; [13]", "result": 12.5, "unit": "µg/mL"}, {"measurement": "MIC K. pneumonia", "setting": "[4]; [13]", "result": 50, "unit": "µg/mL"}, {"measurement": "MIC E. cloacae", "setting": "[5]; [13]", "result": 25, "unit": "µg/mL"}, {"measurement": "MIC A. hydrophila", "setting": "[6]; [13]", "result": 25, "unit": "µg/mL"}, {"measurement": "MIC C. diversus", "setting": "[7]; [13]", "result": 12.5, "unit": "µg/mL"}, {"measurement": "MIC M. catarrhalis", "setting": "[8]; [13]", "result": 25, "unit": "µg/mL"}, {"measurement": "MIC P. mirabilis", "setting": "[9]; [13]", "result": 50, "unit": "µg/mL"}, {"measurement": "MIC P. vulgaris", "setting": "[10]; [13]", "result": 25, "unit": "µg/mL"}, {"measurement": "MIC S. marcescens", "setting": "[11]; [13]", "result": 12.5, "unit": "µg/mL"}]}, {"substance": "PRT1173 (KCIPHPGCVHGICNEPWQCLCETNWGGQLCD; listed as Homo sapiens)", "values": [{"measurement": "MIC", "setting": "[1]", "result": 12.5, "unit": "µg/mL"}, {"measurement": "MIC E. coli BL21", "setting": "[2]; [13]", "result": 25, "unit": "µg/mL"}, {"measurement": "MIC P. aeruginosa", "setting": "[3]; [13]", "result": 12.5, "unit": "µg/mL"}, {"measurement": "MIC K. pneumonia", "setting": "[4]; [13]", "result": 25, "unit": "µg/mL"}, {"measurement": "MIC E. cloacae", "setting": "[5]; [13]", "result": 12.5, "unit": "µg/mL"}, {"measurement": "MIC A. hydrophila", "setting": "[6]; [13]", "result": 12.5, "unit": "µg/mL"}, {"measurement": "MIC C. diversus", "setting": "[7]; [13]", "result": 50, "unit": "µg/mL"}, {"measurement": "MIC M. catarrhalis", "setting": "[8]; [13]", "result": 12.5, "unit": "µg/mL"}, {"measurement": "MIC P. mirabilis", "setting": "[9]; [13]", "result": 50, "unit": "µg/mL"}, {"measurement": "MIC P. vulgaris", "setting": "[10]; [13]", "result": 12.5, "unit": "µg/mL"}, {"measurement": "MIC S. marcescens", "setting": "[11]; [13]", "result": 50, "unit": "µg/mL"}]}, {"substance": "PRT809 (NESCTCANGAACSPIDGSCSCTPGWLGDTCE; listed as Homo sapiens)", "values": [{"measurement": "MIC", "setting": "[1]", "result": 25, "unit": "µg/mL"}, {"measurement": "MIC (μg/mL) E. coli BL21", "setting": "[2]; [12]", "result": 12.5, "unit": "µg/mL"}, {"measurement": "MIC (μg/mL) P. aeruginosa", "setting": "[3]; P. aeruginosa, 10 h cultivation at 37° C.", "result": 25, "unit": "µg/mL"}, {"measurement": "MIC (μg/mL) K. pneumonia", "setting": "[4]; K. pneumonia, 10 h cultivation at 37° C.", "result": 25, "unit": "µg/mL"}, {"measurement": "MIC (μg/mL) E. cloacae", "setting": "[5]; E. cloacae, 10 h cultivation at 37° C.", "result": 50, "unit": "µg/mL"}, {"measurement": "MIC (μg/mL) A. hydrophila", "setting": "[6]; A. hydrophila, 10 h cultivation at 37° C.", "result": 12.5, "unit": "µg/mL"}, {"measurement": "MIC (μg/mL) C. diversus", "setting": "[7]; C. diversus, 10 h cultivation at 37° C.", "result": 25, "unit": "µg/mL"}, {"measurement": "MIC (μg/mL) M. catarrhalis", "setting": "[8]; M. catarrhalis, 10 h cultivation at 37° C.", "result": 50, "unit": "µg/mL"}, {"measurement": "MIC (μg/mL) P. mirabilis", "setting": "[9]; P. mirabilis, 10 h cultivation at 37° C.", "result": 25, "unit": "µg/mL"}, {"measurement": "MIC (μg/mL) P. vulgaris", "setting": "[10]; P. vulgaris, 10 h cultivation at 37° C.", "result": 12.5, "unit": "µg/mL"}, {"measurement": "MIC (μg/mL) S. marcescens", "setting": "[11]; S. marcescens, 10 h cultivation at 37° C.", "result": 25, "unit": "µg/mL"}]}]}
